Experimental data published in patent publication US10252987B2, “Type of antiviral compound” (Institute of Medicinal Biotechnology, Chinese Academy of …, priority 2015, dated 2019).

These compounds were tested on HCV (assay: anti-HCV activity assay in cell culture (HCV RNA by one-step quantitative RT-PCR)). Details: Hepatitis C virus, Huh7.5, 96 h, compound at 10 μmol/L; Huh7.5 cells infected with HCV virus particles; cultured 96 hrs; HCV RNA in cells vs virus control group; read-out: percent inhibition (%).
Format: cell-based
Experimental: The assay results of anti-HCV activity of the compound synthesized according to the present invention in cell culture are shown in Table 1, wherein the molecular weight is calculated by ChemBioDraw 12.0 software from the molecular structure of each compound.
100 μL Huh7.5 cells were seeded in 96-well cell culture plate to 1×10^5/mL density, cultured in an incubator at 37° C. under the condition of 5% CO2 and saturated humidity for 6 hrs. Huh7.5 cells were then infected by viral solution containing HCV virus particles, and solutions of compound of the present invention at a concentration of 10 μmol/L liquid were added respectively, cultured for further 96 hrs, and then total RNA was extracted from the cells. Amount of HCV RNA in cells was determined by one-step quantitative RT-PCR, and compared to RNA levels of the virus control group to calculate the inhibition rate of compounds on HCV.

SMILES | inhibition at 10 µM [%]
Cc1ccc(N2CCN(Cc3cc(N(C)CN4CCCCC4)ccc3C#N)CC2)cc1 [VI-36, 4-((methyl)((piperidin-1-yl)-methyl)amino)-2-(4-p-methylphenylpiperazin-1-yl)methylbenzonitrile] | 91
Cc1ccc(N2CCN(Cc3cc(N(C)CN4CCCC4)ccc3C#N)CC2)cc1 [VI-37, 4-((methyl)((pyrrolidin-1-yl)-methyl)amino)-2-(4-p-methylphenylpiperazin-1-yl)methylbenzonitrile] | 87
CN1CCN(c2ccc(C#N)c(CN3CCC(c4ccc(C(C)(C)C)cc4)CC3)c2)CC1 [VI-38, 4-(4-methylpiperazin-1-yl)-2-(4-(4-tert-butylphenyl)piperidin-1-yl)methylbenzonitrile] | 80

Same assay, conditions: compound at 10 μmol/L; Huh7.5 cells infected with HCV virus particles; cultured 96 hrs; HCV RNA in cells vs virus control group

SMILES | percent inhibition (%)
CN(C)CCN(C)c1ccc(C#N)c(CN2CCC(c3ccc(Cl)cc3)CC2)c1 [VI-39, 4-(N,N′,N′-trimethyl-1,2-ethylenediamin-1-yl)-2-(4-p-chlorophenylpiperidin-1-yl)methylbenzonitrile] | 88
CN(C)C1CCN(c2ccc(C#N)c(CN3CCN(c4ccc(Cl)cc4)CC3)c2)C1 (centres unmarked) [VI-44, 4-((3-dimethylamino)pyrrolidin-1-yl)-2-(4-p-chlorophenylpiperazin-1-yl)methylbenzonitrile] | 89
COc1ccc(N2CCN(Cc3cc(N(C)CCN(C)C)ccc3C#N)CC2)cc1OC [VI-45, 4-(N,N′,N′-trimethyl-1,2-ethylenediamin-1-yl)-2-(3,4-dimethoxyphenylpiperazin-1-yl)methylbenzonitrile] | 92
COc1ccc(N2CCN(Cc3cc(NC(C)CN4CCCC4)ccc3C#N)CC2)cc1 (centres unmarked) [VI-46, 4-(1-(pyrrolidin-1-yl)propyl-2-yl)amino-2-(4-p-methoxyphenylpiperazin-1-yl)methylbenzonitrile] | 95
CN(C)CCN(C)c1ccc(C#N)c(CN2CCN(c3ccc(OC(F)(F)F)cc3)CC2)c1 [VI-47, 4-(N,N′,N′-trimethyl-1,2-ethylenediamin-1-yl)-2-(4-trifluoromethoxyphenylpiperazin-1-yl)methylbenzonitrile] | 93
